Measurements published in paper PMC9945734 (BMC Medicine, 2023).

Columns and labels:
Type in all cases: cell-based, human
MYBL2 promoter = assay: ChIP assay of KLF5 binding to the MYBL2 promoter; conditions: PC-3-KQ cells treated for 48 h
Description: ChIP assay was performed using the SimpleChIP Enzymatic Chromatin IP kit (Cat #: 9003s, Cell Signaling Technology) according to the manufacturer's instructions. Briefly, cells were treated with 1% formaldehyde for 10 min for cross-linking, quenched with glycine for 5 min at room temperature, collected, and digested with micrococcal nuclease for 20 min at 37°C. After stopping the reaction by adding EDTA, DNA was fragmented by sonication, and the extracts were incubated with KLF5 antibody (Cat #: 21017-1-AP, Proteintech) or IgG (Cat #: 2729P, Cell Signaling Technology). […]

[1] = tested on: DU 145 (KLF5 null) cells expressing KLF5^K369Q; assay: CCK-8 cell viability assay; conditions: for cell number: DU 145-KQ
Description: (§1) According to the manufacturer's instructions, cell viability was measured using a kit from Beyotime Biotechnology. Briefly, cells were seeded onto 96-well plates at 5 × 10^3 cells per well, incubated overnight, and then treated for 48 h with drugs at 0, 0.02, 0.05, 0.14, 0.41, 1.23, 3.7, 11.1, 33.3, and 100 μM. Four drugs were analyzed: furagin, nifuratel, nitazoxanide, and retapamulin. At the end of drug treatment, the medium was removed, the CCK-8 solution was added into each well at 100 μL/well and incubated for 1.5 h at 37°C, and the optical density (OD) was measured at 450 nm using a microplate reader (BioTek).
(§2) We also tested a wider range of NTZ concentrations in PC-3-KQ and DU 145-KQ cells using the CCK-8 assay by seeding 2 × 10^3 cells and 2.5 × 10^3 cells onto each well of 96-well plates. PC-3-KQ cells were treated with NTZ at 0, 0.01, 0.1, […], 2.5, and 5 μM, while DU 145-KQ cells were treated with NTZ at 0, 0.01, 0.1, 5, 10, and 20 μM for 0, 24, 48, and 72 h. The number of viable cells was determined using the CCK-8 solution as described above.

[2] = tested on: PC-3 (KLF5 null) cells expressing KLF5^K369Q; assay: CCK-8 cell viability assay; conditions: for cell number: PC-3-KQ
Description: as §1, §2

[3] = lower concentrations (0–0.1 μM), 0 to 72 h

CC(=O)Oc1ccccc1C(=O)Nc1ncc([N+](=O)[O-])s1 [Nitazoxanide]
KLF5^K369Q-bound DNA of MYBL2 promoter (-1242 to -1251) (MYBL2 promoter): significantly decreased KLF5^K369Q-bound DNA
cell number ([1]; higher concentrations (up to 20 μM)): decreased cell number
cell number [1, 3]: did not affect cell number
IC50 ([1]; Homo sapiens, DU 145 (KLF5 null), KLF5^K369Q, CCK-8, 48 h): 22.7 ± 2.3 µM
IC50 ([2]; Homo sapiens, PC-3 (KLF5 null), KLF5^K369Q, CCK-8, 48 h): 5.4 ± 0.5 µM
cell number ([2]; higher concentrations (up to 5 μM)): decreased cell number
cell number [2, 3]: did not affect cell number
